Results taken from US20060040937A1, “N-aroyl cyclic amines as orexin receptor antagonists” (Glaxo Group Limited, priority 2002, published 2006).
Ends that are not written are not given here.

Columns and labels:
freely-feeding rats = settings: central administration, 4 hour time period; cited from earlier work
rat = assay: Rat sleep/EEG studies; type: in vivo; settings: central administration at the onset of the normal sleep period
Source text: Therefore antagonists of its receptor may be useful in the treatment of sleep disorders including insomnia.

orexin-A: peptide ligand for the orexin-1 receptor, an agonist of the orexin receptors; amino acid sequence printed in b97-b99 (QPLPDCCRQKTCSCRLYELLHGAGNHAAGILTL; ends and bridges not checked; cysteine pairing not given here; UniProt O43612 34-66, looked up)
increase in food intake over control rats receiving vehicle (freely-feeding rats): approximately four-fold
effect on arousal (sleep/EEG) (rat): dose-related increase in arousal
